This passage reports IC50 results from US20240124442A1, “TRICYCLIC-AMIDO-BICYCLIC PRMT5 INHIBITORS” (AMGEN INC., priority 2021, published 2024).

One experiment concerns HCT116 MTAP null cells. The experiment in a line: HCT116 MTAP null cell line proliferation / cell viability (CellTiter-Glo, 6 days). The class given is cell-based. Conditions: 144 h; HCT116 MTAP null cells, 6 days treatment, CellTiter-Glo cell viability; read-out: HCT-116 MTAP null IC50. The method, then:
(§1) HCT116 Proliferation Activity
(§2) To assess selective anti-proliferative activity of compounds of the invention in cells that have loss expression of MTAP, an HCT-116 isogenic cell line pair was utilized where one cell line was engineered to genetically knockout both MTAP alleles. Cell viability was then assessed in both the parent HCT-116 cell line and the MTAP null cell line after 6 days of treatment with compounds of the present invention. Selective anti-proliferative activity in the MTAP null cell line indicates MTA-cooperative inhibition of PRMT5 and ability to inhibit growth of cancer cells that have loss of MTAP.
(§3) HCT116 MTAP null and WT cells were seeded in 96-well tissue culture plates in RPMI 1640 media+10% fetal bovine serum. Plates were incubated overnight at 37° C. and 5% CO2. Cells were then treated with an 8- or 9-point serial dilution of compound, using a top concentration of 1, or 10 μM, 1:3 serial dilution steps and, a DMSO-only control. Cells were incubated in the presence of drug for 6 days. Effects on cell viability were measured with the CellTiter-Glo® Luminescent Cell Viability Assay (Promega) per manufacturer's recommendation. Assay plates were read on an EnVision™ Multilabel Reader using the Ultra-Sensitive luminescence module. IC50 values were calculated with GraphPad Prism v 5.01 using symmetrical sigmoidal dose-response least squares fit with Hill slope fixed to −1 and top constrain to 100% or GeneData Screener using a 4-parameter logistic model to fit dose response curves.
(§4) Alternatively, compounds could be assayed with a 384 well plate format:
(§5) Compounds were pre-spotted into 384 well plates with a 22-point serial dilution of compound, using a top concentration of 10 or 50 μM, 1:2 serial dilution steps and, a DMSO-only control. HCT116 MTAP null and WT cells were then seeded as above and after 6 days effects on cell viability were measured with the CellTiter-Glo® Luminescent Cell Viability Assay (Promega). Assay plates were read as above and IC50 values were calculated with GeneData Screener using a 4-parameter logistic model to fit dose response curves. The reported IC50 represents the value where the curve transits 50% of control.
A general note: Cellular ATP, detected with luciferase, serves as a proxy for viable cell number.

The next experiment relates to HCT116 WT cells. As to the kind of experiment: HCT116 WT (parent) cell line proliferation / cell viability (CellTiter-Glo, 6 days). The class given is cell-based. Conditions: Homo sapiens, HCT-116, 144 h, 6 days treatment. How it is done:
as §1, §2, §3, §4, §5

As a reminder, the IC50 is the concentration that inhibits the measured activity by half. Take `CN(C(=O)c1cc2c(cc1F)nc(N)c1cnn(C)c12)C1COc2cc(C(F)(F)F)cc(F)c21` (racemic) [Example 245, 4-amino-7-fluoro-N-((3R)-4-fluoro-6-(trifluoromethyl)-2,3-dihydro-1-benzofuran-3-yl)-N,1-dimethyl-1H-pyrazolo-[4,3-c]quinoline-8-carboxamide and 4-amino-7-fluoro-N-((3S)-4-fluoro-6-(trifluoromethyl)-2,3-dihydro-1-benzofuran-3-yl)-N,1-dimethyl-1H-pyrazolo[4,3-c]quinoline-8-carboxamide]: the IC50 is 0.019 µM in the experiment on HCT116 MTAP null cells and 0.88 µM in the experiment with HCT116 WT cells.
On to `CN(C(=O)c1cc2c(cc1F)nc(N)c1cnn(C)c12)C1c2ccc(C(F)(F)F)nc2CC1(F)F` (racemic) [Example 246, 4-amino-N-((5R)-6,6-difluoro-2-(trifluoromethyl)-6,7-dihydro-5H-cyclopenta[b]-pyridin-5-yl)-7-fluoro-N,1-dimethyl-1H-pyrazolo[4,3-c]-quinoline-8-carboxamide and 4-amino-N-((5S)-6,6-difluoro-2-(trifluoromethyl)-6,7-dihydro-5H-cyclopenta[b]pyridin-5-yl)-7-fluoro-N,1-dimethyl-1H-pyrazolo[4,3-c]quinoline-8-carboxamide], for which the IC50 in the experiment on HCT116 MTAP null cells was 0.61 µM; in the experiment with HCT116 WT cells it was 8.48 µM.
`CN(C(=O)c1cc2c(cc1Cl)nc(N)c1cnn(C)c12)C1CCc2nc(C(F)(F)F)ccc21` (racemic) [Example 248, 4-amino-7-chloro-N,1-dimethyl-N-((5R)-2-(trifluoromethyl)-6,7-dihydro-5H-cyclopenta[b]-pyridin-5-yl)-1H-pyrazolo[4,3-c]quinoline-8-carboxamide and 4-amino-7-chloro-N,1-dimethyl-N-((5S)-2-(trifluoromethyl)-6,7-dihydro-5H-cyclopenta[b]-pyridin-5-yl)-1H-pyrazolo[4,3-c]quinoline-8-carboxamide]: the figures for the IC50 with HCT116 MTAP null cells and in the experiment with HCT116 WT cells were 0.018 µM and 0.635 µM, respectively.
For `CN(C(=O)c1cc2c3c(c(N)nc2cc1F)COC3)C1CCOc2cc(C(F)(F)F)ccc21` (racemic) [Example 272, 4-amino-7-fluoro-N-methyl-N-((4R)-7-(trifluoromethyl)-3,4-dihydro-2H-chromen-4-yl)-1,3-dihydrofuro[3,4-c]quinoline-8-carboxamide and 4-amino-7-fluoro-N-methyl-N-((4S)-7-(trifluoromethyl)-3,4-dihydro-2H-chromen-4-yl)-1,3-dihydrofuro[3,4-c]quinoline-8-carboxamide], the IC50 was found to be 0.206 µM with HCT116 MTAP null cells and 5.39 µM in the experiment with HCT116 WT cells.
On to `CN(C(=O)c1cc2c(cc1F)nc(N)c1cnn(C)c12)C1CCOc2cc(C(F)(F)F)ccc21` (racemic) [Example 290, 4-amino-7-fluoro-N,1-dimethyl-N-((4R)-7-(trifluoromethyl)-3,4-dihydro-2H-chromen-4-yl)-1H-pyrazolo[4,3-c]quinoline-8-carboxamide and 4-amino-7-fluoro-N,1-dimethyl-N-((4S)-7-(trifluoromethyl)-3,4-dihydro-2H-chromen-4-yl)-1H-pyrazolo[4,3-c]quinoline-8-carboxamide], for which the results for the IC50 in the experiment on HCT116 MTAP null cells and in the experiment with HCT116 WT cells were 0.061 µM and 2.46 µM, respectively.
As to `CN(C(=O)c1ccc2nc(N)c3c(c2c1)COC3)C1CCc2nc(C(F)(F)F)ccc21` (racemic) [Example 444, 4-amino-N-methyl-N-((5R)-2-(trifluoromethyl)-6,7-dihydro-5H-cyclopenta[b]pyridin-5-yl)-1,3-dihydrofuro[3,4-c]quinoline-8-carboxamide and 4-amino-N-methyl-N-((5S)-2-(trifluoromethyl)-6,7-dihydro-5H-cyclopenta[b]pyridin-5-yl)-1,3-dihydrofuro[3,4-c]quinoline-8-carboxamide], the figures for the 50% inhibitory concentration (IC50) with HCT116 MTAP null cells and in the experiment with HCT116 WT cells were 0.348 µM and 12.1 µM, respectively.
The corresponding values for `CN(C(=O)c1ccc2nc(N)c3c(c2c1)COC3)C1COc2cc(C(F)(F)F)ncc21` (racemic) [Example 445, 4-amino-N-methyl-N-((3R)-6-(trifluoromethyl)-2,3-dihydrofuro[3,2-c]pyridin-3-yl)-1,3-dihydrofuro[3,4-c]quinoline-8-carboxamide and 4-amino-N-methyl-N-((3S)-6-(trifluoromethyl)-2,3-dihydrofuro[3,2-c]pyridin-3-yl)-1,3-dihydrofuro[3,4-c]quinoline-8-carboxamide] are 0.316 µM and 12.6 µM.
The corresponding values for `Nc1nc2ccc(C(=O)N(C3CC3)C3COc4cc(C(F)(F)F)ccc43)cc2c2c1COC2` (racemic) [Example 449, 4-amino-N-cyclopropyl-N-((3R)-6-(trifluoromethyl)-2,3-dihydro-1-benzofuran-3-yl)-1,3-dihydrofuro[3,4-c]quinoline-8-carboxamide and 4-amino-N-cyclopropyl-N-((3S)-6-(trifluoromethyl)-2,3-dihydro-1-benzofuran-3-yl)-1,3-dihydrofuro[3,4-c]quinoline-8-carboxamide] are 0.096 µM and 3.35 µM.
`CN(C(=O)c1ccc2nc(N)c3c(c2c1)COC3)C1COc2cc(Br)cnc21` (racemic) [Example 450, 4-amino-N-((3R)-6-bromo-2,3-dihydrofuro[3,2-b]pyridin-3-yl)-N-methyl-1,3-dihydrofuro[3,4-c]quinoline-8-carboxamide and 4-amino-N-((3S)-6-bromo-2,3-dihydrofuro[3,2-b]pyridin-3-yl)-N-methyl-1,3-dihydrofuro[3,4-c]quinoline-8-carboxamide]: the values for the IC50 in the experiment with HCT116 MTAP null cells and in the experiment with HCT116 WT cells were 2.07 µM and 37.8 µM, respectively.
In the case of `CN(C(=O)c1cc2c3c(c(N)nc2cn1)COC3)C1COc2cc(OC(F)F)ccc21` (racemic) [Example 453, 4-amino-N-((3R)-6-(difluoromethoxy)-2,3-dihydro-1-benzofuran-3-yl)-N-methyl-1,3-dihydrofuro[3,4-c][1,7]naphthyridine-8-carboxamide and 4-amino-N-((3S)-6-(difluoromethoxy)-2,3-dihydro-1-benzofuran-3-yl)-N-methyl-1,3-dihydrofuro[3,4-c][1,7]naphthyridine-8-carboxamide], the values for the IC50 in the experiment with HCT116 MTAP null cells and in the experiment on HCT116 WT cells were 0.246 µM and 13.3 µM, respectively.
The corresponding values for `CN(C(=O)c1cc2c3c(c(N)nc2cn1)COC3)C1COc2cc(C(F)(F)F)ncc21` (racemic) [Example 454, 4-amino-N-methyl-N-((3R)-6-(trifluoromethyl)-2,3-dihydrofuro[3,2-c]pyridin-3-yl)-1,3-dihydrofuro[3,4-c][1,7]naphthyridine-8-carboxamide and 4-amino-N-methyl-N-((3S)-6-(trifluoromethyl)-2,3-dihydrofuro[3,2-c]pyridin-3-yl)-1,3-dihydrofuro[3,4-c][1,7]naphthyridine-8-carboxamide] are 3.56 µM and 50 µM.
The corresponding values for `CN(C(=O)c1cc2c3c(c(N)nc2cn1)COC3)C1COc2cc(C(F)(F)F)cc(F)c21` (racemic) [Example 455, 4-amino-N-((3R)-4-fluoro-6-(trifluoromethyl)-2,3-dihydro-1-benzofuran-3-yl)-N-methyl-1,3-dihydrofuro[3,4-c][1,7]naphthyridine-8-carboxamide and 4-amino-N-((3S)-4-fluoro-6-(trifluoromethyl)-2,3-dihydro-1-benzofuran-3-yl)-N-methyl-1,3-dihydrofuro[3,4-c][1,7]naphthyridine-8-carboxamide] are 0.122 µM and 5.62 µM.
